Measurements taken from patent US20230181554A1, “AGENT FOR PROTECTING AND/OR REGENERATING NEUROMUSCULAR JUNCTION” (ONO PHARMACEUTICAL CO., LTD., priority 2020, published 2023).

How the values were obtained:
[1] = tested on: co-culture of mouse myoblast cell line C2C12 cells into which human mutant SOD1 (G93A) was introduced and mouse primary cultured motor neurons; test: Neuromuscular junction formation in co-culture, α-bungarotoxin-positive area; format: cell-based; settings: for concentration from which the positive area of the neuromuscular junction was significantly increased: α-bungarotoxin-positive area on day 11 after treatment, versus control (Dunnett's test); for positive area of the neuromuscular junction: day 11
[2] = tested on: mouse primary cultured motor neurons; test: Neurite outgrowth action in mono-culture of motor neurons; format: cell-based; settings: total protrusion length on day 4 after treatment, versus control (Dunnett's test)
Description: In a mono-culture system of mouse primary cultured motor neurons, the neurite outgrowth action of a sterol C14-reductase inhibitor (TM7SF2 inhibitor) and FF-MAS was evaluated. The mouse primary cultured motor neurons were prepared from an embryonic day 13 mouse fetus. In other words, a mouse on day 13 of gestation was subjected to cervical dislocation and euthanized, and the abdomen was incised to extract the fetus. The fetus was decapitated, and then the spinal cord was extracted under a stereomicroscope. The spinal cord was treated with HBSS containing 0.25% trypsin at 37° C. for 15 minutes, then the supernatant was removed, washing was performed 3 times with HBSS, 2 mL of a dispersion solution was added, and pipetting was repeated with a tapered Pasteur pipette to prepare a cell suspension. The cell suspension was centrifuged (200 g, 5 minutes), 2 mL of a motor neuron medium was added to the sediment, the suspension was resuspended, and the number of cells was measured. The mouse primary cultured motor neurons suspended in the motor neuron medium were seeded on a 96-well imaging plate coated with poly-D-lysine at 1.5×10^4 cells/100 μL/well. […] The neurite length was evaluated by immunostaining the nuclei and protrusions of nerve cells. […] As primary antibodies, Anti-Neuron-specific beta-III Tubulin Antibody (R&D Systems, Inc., MAB1195, 1/1,000 dilution) and Anti-NeuN Antibody (Merck Millipore, ABN78, 1/500 dilution) diluted with a blocking solution were added in an amount of 50 and the plate was allowed to stand at 4° C. overnight. After washing 3 times with 100 to 150 μL/well of PBS, 50 μL/well of Alexa Fluor 647 goat anti-mouse IgG (H+L) (Invitrogen, A-21236, 1/1,000 dilution) and Alexa Fluor 488 goat anti-rabbit IgG (H+L) (Invitrogen, A-11034, 1/1,000 dilution) as secondary antibodies were added, and the plate was allowed to stand at room temperature for 1 hour while being shielded from light, and then washed 3 times with 100 to 150 μL/well of PBS. The stained plate was photographed using the Opera Phenix high-throughput high-content imaging system ([…] Japan). Images of 5 fields per well were acquired using an Alexa Fluor 647 wavelength filter for photographing neurites and an Alexa Fluor 488 wavelength filter for photographing nuclei of nerve cells, nuclei of nerve cells and neurites per field were analyzed by an analysis program, and the sum of neurite lengths per field was calculated. Taking the mean of the sum of neurite lengths in the vehicle group (0.03% DMSO or 0.2% ethanol) evaluated for each plate as 100%, the sum of neurite lengths in the sterol C14-reductase inhibitor (TM7SF2 inhibitor) and FF-MAS treatment groups was calculated.

[3] = tested on: rat primary Schwann cells; test: Schwann cell differentiation-promoting action (MAG expression); format: cell-based; settings: day 3 after treatment, versus control (Dunnett's test)
Description: The Schwann cell differentiation-promoting action of FF-MAS was evaluated in a culture system of rat primary Schwann cells. In other words, neonatal rats aged 0 to 2 days after birth were decapitated, then sterilized by being immersed in ethanol for disinfection, moved to a clean bench, and then washed with a recovery medium (Dulbecco's modified Eagle medium (Sigma Aldrich, product number D5921) without phenol red containing 1 vol % Antibiotic-Antimycotic (Antibiotic-Antimycotic 100×, Thermo Fisher Scientific, Inc., product number 15240062)). Thereafter, the dorsal root ganglion was extracted under a microscope and recovered in a 15 mL tube filled with the recovery medium. The recovered tube was centrifuged at 400 g for 3 minutes at room temperature, and the supernatant was removed. […] The number of cells in the filtered cell suspension was counted and adjusted to 2.0×10^5 cells/mL, and then the cells were seeded on a 96-well plate coated with poly-D-lysine at 100 μL/well each, and statically cultured in a CO2 incubator under conditions of 5% CO2, 95% air, and 37° C. […] The Schwann cell differentiation-promoting action was evaluated on the basis of the expression level of myelin-associated glycoprotein (hereinafter referred to as MAG). […]

[4] = tested on: mouse myoblast cell line C2C12 cells into which human mutant SOD1 (G93A) was introduced; test: FF-MAS and 14-dehydrozymosterol accumulation action in myotube-like differentiated C2C12 cells (LC/APCI-MS/MS); format: cell-based; settings: for intracellular FF-MAS concentration: cells recovered at 3 and 24 hours after treatment, DMSO treatment group below the detection limit; for concentration of 14-dehydrozymosterol: same treatment as for FF-MAS, cells recovered at 3 and 24 hours
Description: After mouse myoblast cell line C2C12 cells into which human mutant SOD1 (G93A) was introduced were myotube-like differentiated, the cells were treated with sterol C14-reductase inhibitors (TM7SF2 inhibitors) (amorolfine, ziprasidone, and ifenprodil), and the fluctuation of sterol in the cells was evaluated. In other words, in order to differentiate C2C12 cells into myotubes, C2C12 cells that had been cultured using 15% FBS-DMEM (Dulbecco's modified Eagle's medium containing 15% fetal bovine serum and 100 units/mL penicillin-100 μg/mL streptomycin) were cultured for 2 days in a culture flask after the medium was replaced with a low-serum medium (Dulbecco's modified Eagle's medium containing 0.5% FBS, 1% insulin-transferrin-selenium, and 100 units/mL penicillin-100 μg/mL streptomycin). Then, in order to remove proliferating undifferentiated cells, the medium was replaced with a low-serum medium containing 10 μmol/L arabinocytidine (AraC), and the cells were further cultured for 2 days. The myotube-like differentiated C2C12 cells were detached from the culture flask by treatment with 0.25% trypsin-1 mmol/L EDTA, and then the cells were seeded on a 3.5-cm culture dish coated with Matrigel at 2.4×10^5 cells/dish, and cultured for 3 days. After treatment with a sterol C14-reductase inhibitor (TM7SF2 inhibitor) or 0.03% DMSO, the cells were recovered at 3 and 24 hours. After removing the medium and washing with phosphate buffered saline (PBS), the cells were recovered with 200 µL of 90% methanol containing 1 μmol/L d7-cholesterol (internal standard substance), and further recovered again with 200 μL of a 90% methanol solution, so that a total of about 400 μL of a cell recovery solution was obtained. Then, 160 μL of this cell recovery solution was pretreated by a solid-phase extraction method using OASIS PRiME HLB glution Plate, and a sample eluted with methanol/IPA (1 : 1) was measured by high-performance liquid chromatography/atmospheric pressure chemical ionization-tandem mass spectrometry (LC/APCI-MS/MS), and each concentration in the recovery solution was calculated by an internal standard calibration curve method.

[5] = tested on: C2C12 cells in which human mutant SOD1 (G93A) was overexpressed alone and mouse primary motor neurons; test: Neuromuscular junction formation in co-culture, C2C12 overexpressing human mutant SOD1 (G93A) alone; format: cell-based; settings: day 11
[6] = tested on: C2C12 cells in which both human mutant SOD1 (G93A) and a human TM7SF2 gene were overexpressed and mouse primary motor neurons; test: Neuromuscular junction formation in co-culture, C2C12 overexpressing human mutant SOD1 (G93A) and human TM7SF2; format: cell-based; settings: same concentration range (0.1, 0.3, 1, and 3 μmol/L), day 11
[7] = tested on: myasthenia gravis model rat; test: Rat myasthenia gravis model (mAb35 induced), grip strength; format: in vivo; settings: grip strength at 96 hours after induction by mAb35; repeated oral administration once a day; versus control (Dunnett's test)
Description: The efficacy of ifenprodil, which is a sterol C14-reductase inhibitor (TM7SF2 inhibitor), in a rat myasthenia gravis model was evaluated. The rat myasthenia gravis model is a model in which a neuromuscular junction (NMJ) is impaired and motor functions such as grip strength are declined by treating a rat with mAb35, which is an antibody against an anti-acetylcholine receptor. First, an anti-acetylcholine receptor antibody mAb35 (Bio X Cell, product number BE0123) as an inducing agent was intraperitoneally administered to a 5-week-old female LEW/CrlCrlj rat at a concentration of 0.29 mg/mL and a volume of 5 mL/kg to induce a pathological condition. Ifenprodil (MedChemExpress, product number HY-12882A) as a test substance was dissolved in water for injection (Otsuka Pharmaceutical Factory, Inc.) containing 2% DMSO so that the concentration is 0.1, 0.3, and 1 mg/mL to prepare an administration solution. Ifenprodil was repeatedly orally administered once a day at doses of […] from 9 hours after induction by administration of mAb35 to 4 days after induction as the evaluation end date. […] The grip strength was measured on the day before induction (pre-value). […] For quantitative evaluation of the grip strength, a grip strength measuring device Traction Meter (BrainScience idea Co., Ltd.) was used.

| SMILES | concentration from which the positive area of the neuromuscular junction was significantly increased [1] [µmol/L] | concentration from which the sum of neurite lengths was significantly increased [2] [µmol/L] | intracellular FF-MAS concentration [4] | concentration of 14-dehydrozymosterol [4] | also measured |
| --- | --- | --- | --- | --- | --- |
| CC(C)=CCC[C@@H](C)[C@H]1CC=C2C3=C(CC[C@@]21C)[C@@]1(C)CC[C@H](O)C[C@@H]1CC3 [14-dehydrozymosterol, 5alpha-cholesta-8,14,24-trien-3beta-ol] | 10 | – | – | – | – |
| CC(C)=CCC[C@@H](C)[C@H]1CC=C2C3=C(CC[C@@]21C)[C@@]1(C)CC[C@H](O)C(C)(C)[C@@H]1CC3 [FF-MAS, 4,4-dimethyl-5alpha-cholesta-8,14,24-trien-3beta-ol] | 10 | 1.1 | – | – | concentration from which the value of MAG/number of cell nuclei was significantly increased [3]: 3 µmol/L |
| COc1ccc(S(=O)(=O)N2CCC(N3CCC(C)CC3)CC2)cc1 [TASIN-1] | – | – | – | – | positive area of the neuromuscular junction [1]: no significant increase |
| CCC(C)(C)c1ccc(CC(C)CN2C[C@@H](C)O[C@@H](C)C2)cc1 (stereo partly shown) [amorolfine] | 0.3 | 0.3 | increase | increase | positive area of the neuromuscular junction ([5]; at 1 μmol/L): significantly increased; positive area of the neuromuscular junction ([5]; at 3 mol/L): significantly increased; positive area of the neuromuscular junction [6]: no increasing fluctuation |
| CC(C(O)c1ccc(O)cc1)N1CCC(Cc2ccccc2)CC1 (stereo not shown) [ifenprodil] | 1 | 1 | increase | increase | dose from which the grip strength was significantly improved [7]: 3 mg/kg |
| O=C1Cc2cc(CCN3CCN(c4nsc5ccccc45)CC3)c(Cl)cc2N1 [ziprasidone] | 3 | 1 | increase | increase | – |
| CC(C)=CCC[C@@H](C)[C@H]1CC[C@H]2C3=C(CC[C@]12C)[C@@]1(C)CC[C@H](O)C[C@@H]1CC3 [zymosterol] | – | – | – | – | positive area of the neuromuscular junction ([1]; added at 0.05 to 10 μmol/L): no significant increase |
